target: IgE-Tb / sFcεRIα-Y131A-AF488 (Homo sapiens, UniProt P01854, N146Q/N252Q); assay: IgE-Tb / sFcεRIα-Y131A-AF488 FRET assay (protocol for examples 234 to 501); assay type: binding; conditions: examples 234 to 501: compound with IgE-Tb 30 minutes before sFcεRIα-Y131A-AF488, incubated 18 hours at room temperature; read-out: Y131A FRET IC50 range
Procedure, shortened: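 Read-out is the 520/490 nm emission ratio (337 nm excitation) after 18 h at room temperature, background subtracted, fitted four-parameter for IC50. Final reagents: 5 nM IgE-Tb, preincubated 30 min with compound (top typically 10 μM, 2% DMSO, 3-fold 10-point), plus 25 nM sFcεRIα-Y131A-AF488.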

Chain of IgE-Tb / sFcεRIα-Y131A-AF488 (P01854 whole entry N146Q/N252Q): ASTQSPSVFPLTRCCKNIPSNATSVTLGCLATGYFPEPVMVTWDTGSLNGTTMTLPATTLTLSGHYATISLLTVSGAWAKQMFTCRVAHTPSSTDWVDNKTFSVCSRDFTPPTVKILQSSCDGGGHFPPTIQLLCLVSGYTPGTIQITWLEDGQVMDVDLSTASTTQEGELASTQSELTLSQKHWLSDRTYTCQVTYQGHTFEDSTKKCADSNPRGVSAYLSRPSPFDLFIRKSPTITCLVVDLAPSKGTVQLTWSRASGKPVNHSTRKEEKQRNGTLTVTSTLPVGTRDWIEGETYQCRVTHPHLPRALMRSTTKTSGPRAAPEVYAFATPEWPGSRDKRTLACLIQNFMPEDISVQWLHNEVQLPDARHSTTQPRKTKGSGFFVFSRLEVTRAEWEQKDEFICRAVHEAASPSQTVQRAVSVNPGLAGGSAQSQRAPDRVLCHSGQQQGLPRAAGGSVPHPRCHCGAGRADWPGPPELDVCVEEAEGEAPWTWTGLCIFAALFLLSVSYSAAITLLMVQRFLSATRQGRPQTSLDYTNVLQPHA

Compound	IC50 [nM]
Cn1nc(OC(F)(F)F)cc1Nc1nncn1[C@H]1CCc2sc(NC(=O)C3CC3)c(C(=O)NCC3CC3)c2C1 [Example 294, (5S)-2-(cyclopropanecarbonylamino)-N-(cyclopropylmethyl)-5-[3-[[2-methyl-5-(trifluoromethoxy)pyrazol-3-yl]amino]-1,2,4-triazol-4-yl]-4,5,6,7-tetrahydrobenzothiophene-3-carboxamide]	< 1000
Cn1nc(OC(F)(F)Cl)cc1Nc1nncn1[C@H]1CCc2sc(NC(=O)C3CC3)c(C(=O)NCC3CC3)c2C1 [Example 295, (5S)-5-[3-[[5-[chloro(difluoro)methoxy]-2-methyl-pyrazol-3-yl]amino]-1,2,4-triazol-4-yl]-2-(cyclopropanecarbonylamino)-N-(cyclopropylmethyl)-4,5,6,7-tetrahydrobenzothiophene-3-carboxamide]	< 1000
Cc1nnc(-c2cc(Nc3nncn3[C@H]3CCc4sc(NC(=O)C5CC5)c(C(=O)NCC5CC5)c4C3)n(C)n2)o1 [Example 296, (5S)-2-cyclopropaneamido-N-(cyclopropylmethyl)-5-(3-{[1-methyl-3-(5-methyl-1,3,4-oxadiazol-2-yl)-1H-pyrazol-5-yl]amino}-4H-1,2,4-triazol-4-yl)-4,5,6,7-tetrahydro-1-benzothiophene-3-carboxamide]	< 1000
COc1cnc(Nc2nncn2[C@H]2CCc3sc(NC(=O)C4CC4)c(C(=O)NCC4CC4)c3C2)c(C)n1 [Example 297, (5S)-2-(cyclopropanecarbonylamino)-N-(cyclopropylmethyl)-5-[3-[(5-methoxy-3-methyl-pyrazin-2-yl)amino]-1,2,4-triazol-4-yl]-4,5,6,7-tetrahydrobenzothiophene-3-carboxamide]	< 1000
Cc1ccc2nc(N[C@H]3CCc4sc(NC(=O)C5CC5)c(C(=O)NCC5CC5)c4C3)sc2n1 [Example 298, (5S)-2-(cyclopropanecarbonylamino)-N-(cyclopropylmethyl)-5-[(5-methylthiazolo[5,4-b]pyridin-2-yl)amino]-4,5,6,7-tetrahydrobenzothiophene-3-carboxamide]	< 1000
Cc1ncc(C#N)cc1Nc1nncn1[C@H]1CCc2sc(NC(=O)C3CC3)c(C(=O)NCC3CC3)c2C1 [Example 299, (5S)-5-[3-[(5-cyano-2-methyl-3-pyridyl)amino]-1,2,4-triazo-4-yl]-2-(cyclopropanecarbonylamino)-N-(cyclopropylmethyl)-4,5,6,7-tetrahydrobenzothiophene-3-carboxamide]	< 1000
Cc1nc(C#N)ccc1Nc1nncn1[C@H]1CCc2sc(NC(=O)C3CC3)c(C(=O)NCC3CC3)c2C1 [Example 300, (5S)-5-[3-[(6-cyano-2-methyl-3-pyridyl)amino]-1,2,4-triazol-4-yl]-2-(cyclopropanecarbonylamino)-N-(cyclopropylmethyl)-4,5,6,7-tetrahydrobenzothiophene-3-carboxamide]	< 1000
Cn1ccc(Nc2nncn2[C@H]2CCc3sc(NC(=O)C4CC4)c(C(=O)NCC4CC4)c3C2)cc1=O [Example 301, (5S)-2-(cyclopropanecarbonylamino)-N-(cyclopropylmethyl)-5-[3-[(1-methyl-2-oxo-4-pyridyl)amino]-1,2,4-triazol-4-yl]-4,5,6,7-tetrahydrobenzothiophene-3-carboxamide]	< 1000
Cc1nc(Cl)ccc1Nc1nncn1[C@H]1CCc2sc(NC(=O)C3CC3)c(C(=O)NCC3CC3)c2C1 [Example 302, (5S)-5-[3-[(6-chloro-2-methyl-3-pyridyl)amino]-1,2,4-triazol-4-yl]-2-(cyclopropanecarbonylamino)-N-(cyclopropylmethyl)-4,5,6,7-tetrahydrobenzothiophene-3-carboxamide]	< 1000
Cc1nc(C(F)(F)F)ccc1Nc1nncn1[C@H]1CCc2sc(NC(=O)C3CC3)c(C(=O)NCC3CC3)c2C1 [Example 303, (5S)-2-(cyclopropanecarbonylamino)-N-(cyclopropylmethyl)-5-[3-[[2-methyl-6-(trifluoromethyl)-3-pyridyl]amino]-1,2,4-triazol-4-yl]-4,5,6,7-tetrahydrobenzothiophene-3-carboxamide]	< 1000
Cc1nnccc1Nc1nncn1[C@H]1CCc2sc(NC(=O)C3CC3)c(C(=O)NCC3CC3)c2C1 [Example 304, (5S)-2-(cyclopropanecarbonylamino)-N-(cyclopropylmethyl)-5-[3-[(3-methylpyridazin-4-yl)amino]-1,2,4-triazol-4-yl]-4,5,6,7-tetrahydrobenzothiophene-3-carboxamide]	< 1000
Cn1nc(Cl)cc1Nc1nncn1[C@H]1CCc2sc(NC(=O)C3CC3)c(C(=O)NCC3CC3)c2C1 [Example 305, (5S)-5-[3-[(5-chloro-2-methyl-pyrazol-3-yl)amino]-1,2,4-triazol-4-yl]-2-(cyclopropanecarbonylamino)-N-(cyclopropylmethyl)-4,5,6,7-tetrahydrobenzothiophene-3-carboxamide]	< 1000
C[C@@H]1C[C@@H]1C(=O)Nc1sc2c(c1C(=O)NCC1CC1)C[C@@H](n1cnnc1Nc1cc(OC(F)F)nn1C)CC2 [Example 306, (5S)—N-(cyclopropylmethyl)-5-[3-[[5-(difluoromethoxy)-2-methyl-pyrazol-3-yl]amino]-1,2,4-triazol-4-yl]-2-[[(1S,2R)-2-methylcyclopropanecarbonyl]amino]-4,5,6,7-tetrahydrobenzothiophene-3-carboxamide]	< 1000
Cc1nscc1Nc1nncn1[C@H]1CCc2sc(NC(=O)C3CC3)c(C(=O)NCC3CC3)c2C1 [Example 307, (5S)-2-(cyclopropanecarbonylamino)-N-(cyclopropylmethyl)-5-[3-[(3-methylisothiazol-4-yl)amino]-1,2,4-triazol-4-yl]-4,5,6,7-tetrahydrobenzothiophene-3-carboxamide]	< 1000
Cc1nocc1Nc1nncn1[C@H]1CCc2sc(NC(=O)C3CC3)c(C(=O)NCC3CC3)c2C1 [Example 308, (5S)-2-(cyclopropanecarbonylamino)-N-(cyclopropylmethyl)-5-[3-[(3-methylisoxazol-4-yl)amino]-1,2,4-triazol-4-yl]-4,5,6,7-tetrahydrobenzothiophene-3-carboxamide]	< 1000
Cn1nc(OCC2CC2)cc1Nc1nncn1[C@H]1CCc2sc(NC(=O)[C@H]3C[C@@H]3F)c(C(=O)NCC3CC3)c2C1 [Example 309, (5S)-5-[3-[[5-(cyclopropylmethoxy)-2-methyl-pyrazol-3-yl]amino]-1,2,4-triazol-4-yl]-N-(cyclopropylmethyl)-2-[[(1R,2S)-2-fluorocyclopropanecarbonyl]amino]-4,5,6,7-tetrahydrobenzothiophene-3-carboxamide]	< 1000
CCOc1cc(Nc2nncn2[C@H]2CCc3sc(NC(=O)[C@H]4C[C@@H]4F)c(C(=O)NCC4CC4)c3C2)n(C)n1 [Example 310, (5S)—N-(cyclopropylmethyl)-5-[3-[(5-ethoxy-2-methyl-pyrazol-3-yl)amino]-1,2,4-triazol-4-yl]-2-[[(1R,2S)-2-fluorocyclopropanecarbonyl]amino]-4,5,6,7-tetrahydrobenzothiophene-3-carboxamide]	< 1000
Cn1nc(C(F)(F)F)cc1Nc1nncn1[C@H]1CCc2sc(NC(=O)[C@H]3C[C@H]3F)c(C(=O)NCC3CC3)c2C1 [Example 312, (5S)—N-(cyclopropylmethyl)-2-[[(1R,2R)-2-fluorocyclopropanecarbonyl]amino]-5-[3-[[2-methyl-5-(trifluoromethyl)pyrazol-3-yl]amino]-1,2,4-triazol-4-yl]-4,5,6,7-tetrahydrobenzothiophene-3-carboxamide]	< 1000
Cn1nc(OC(F)F)cc1Nc1nncn1[C@H]1CCc2sc(NC(=O)[C@H]3C[C@@H]3F)c(C(=O)NCC3CC3)c2C1 [Example 313, (5S)—N-(cyclopropylmethyl)-5-[3-[[5-(difluoromethoxy)-2-methyl-pyrazol-3-yl]amino]-1,2,4-triazol-4-yl]-2-[[(1R,2S)-2-fluorocyclopropanecarbonyl]amino]-4,5,6,7-tetrahydrobenzothiophene-3-carboxamide]	< 1000
Cn1nc(OC(F)F)cc1Nc1nncn1[C@H]1CCc2sc(NC(=O)[C@H]3C[C@@H]3F)c(C(=O)NC[C@@H]3C[C@@H]3F)c2C1 [Example 322, (5S)-5-[3-[[5-(difluoromethoxy)-2-methylpyrazol-3-yl]amino]-1,2,4-triazol-4-yl]-2-[[(1R,2S)-2-fluorocyclopropanecarbonyl]amino]-N-[[(1S,2S)-2-fluorocyclopropyl]methyl]-4,5,6,7-tetrahydro-1-benzothiophene-3-carboxamide]	< 1000
Cc1nscc1Nc1nncn1[C@H]1CCc2sc(NC(=O)C3CC34CC4)c(C(=O)NCC3CC3)c2C1 (stereo partly drawn) [Example 329, (5S)—N-(cyclopropylmethyl)-5-[3-[(3-methyl-1,2-thiazol-4-yl)amino]-1,2,4-triazol-4-yl]-2-(spiro[2.2]pentane-2-carbonylamino)-4,5,6,7-tetrahydro-1-benzothiophene-3-carboxamide]	< 1000
COc1cc(Nc2nncn2[C@H]2CCc3sc(NC(=O)C4CC4)c(C(=O)NCC4CC4)c3C2)n(C)n1 [Example 337, (5S)-2-(cyclopropanecarbonylamino)-N-(cyclopropylmethyl)-5-[3-[(5-methoxy-2-methylpyrazol-3-yl)amino]-1,2,4-triazol-4-yl]-4,5,6,7-tetrahydro-1-benzothiophene-3-carboxamide]	< 1000
Cn1nc(OC(F)F)cc1Nc1nncn1[C@H]1CCc2sc(NC(=O)[C@H]3C[C@H](F)C3)c(C(=O)NCC3CC3)c2C1 [Example 343, (5S)—N-(cyclopropylmethyl)-5-[3-[[5-(difluoromethoxy)-2-methylpyrazol-3-yl]amino]-1,2,4-triazol-4-yl]-2-[trans-(3-fluorocyclobutanecarbonyl)amino]-4,5,6,7-tetrahydro-1-benzothiophene-3-carboxamide]	< 1000

Source: patent US12018021B2 (UCB Biopharma SRL, priority 2018, dated 2024)
